Measured values from ChEMBL document CHEMBL1201862, “PubChem BioAssay data set” (2004).
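Five concentrations, 48 hours, 96-well plates. GI50 marks 50% less growth.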 Calls of active or inactive are those of the source. No stated cut-off is given here; in the data, active = GI50 up to about 1.1 µM and inactive = higher.

How the values were obtained:
Assay in all cases: inhibition of tumour cell growth, NCI panel, 48 h
[1] = test system: XF498
[2] = test system: SNB-78
[3] = test system: DLD-1
[4] = test system: M19-MEL
[5] = test system: KM-20L2
[6] = test system: DMS-114
[7] = test system: RXF 631
[8] = test system: LXFL 529
[9] = test system: HOP-18

NC(=O)c1ccc([N+](=O)[O-])cc1
GI50 [1]: > 100 µM (inactive)
GI50 [2]: > 100 µM (inactive)
GI50 [3]: > 100 µM (inactive)
GI50 [4]: > 100 µM (inactive)
GI50 [5]: > 100 µM (inactive)
GI50 [6]: > 100 µM (inactive)
GI50 [7]: > 100 µM (inactive)
GI50 [8]: > 100 µM (inactive)

CCCCC1CC(c2ccc(Cl)cc2)=NO1 (stereo unspecified)
GI50 [9]: > 100 µM (inactive)
GI50 [2]: > 100 µM (inactive)
GI50 [3]: > 100 µM (inactive)
GI50 [4]: > 100 µM (inactive)
GI50 [6]: > 100 µM (inactive)
GI50 [8]: > 100 µM (inactive)

CCC[C@H]1O[C@@H]2CC(=O)O[C@@H]2C2=C1C(=O)C=CC2=O
GI50 [9]: 18 µM (inactive)
GI50 [2]: 23.3 µM (inactive)
GI50 [3]: 17.7 µM (inactive)
GI50 [4]: 20.3 µM (inactive)
GI50 [5]: 21.4 µM (inactive)
GI50 [8]: 15.6 µM (inactive)

Cn1nc(-c2ccccc2)c(C(=O)/C=C/c2ccc(F)cc2)c(N2CCCC2)c1=O
GI50 [1]: 20.8 µM (inactive)
GI50 [9]: 14.6 µM (inactive)
GI50 [3]: 11.2 µM (inactive)
GI50 [4]: 15.1 µM (inactive)
GI50 [5]: 13.1 µM (inactive)
GI50 [6]: 11.5 µM (inactive)
GI50 [8]: 12.8 µM (inactive)

COCCN1C2=CCCCC2=Nc2c(N)nc(N)nc21
GI50 [1]: > 100 µM (inactive)
GI50 [9]: > 100 µM (inactive)
GI50 [2]: > 100 µM (inactive)
GI50 [3]: > 100 µM (inactive)
GI50 [4]: 24.3 µM (inactive)
GI50 [5]: > 100 µM (inactive)
GI50 [6]: > 100 µM (inactive)
GI50 [7]: > 100 µM (inactive)
GI50 [8]: > 100 µM (inactive)

COC(=O)C1Cc2c([nH]c3ccccc23)C(c2ccccc2O)N1Cc1ccccc1 (stereo unspecified)
GI50 [9]: 31.6 µM (inactive)
GI50 [2]: 34 µM (inactive)
GI50 [3]: 74 µM (inactive)
GI50 [4]: 40.6 µM (inactive)
GI50 [5]: > 46.5 µM (inactive)
GI50 [6]: 19.8 µM (inactive)
GI50 [7]: 21.2 µM (inactive)
GI50 [8]: 31.5 µM (inactive)

CC(=O)C1Cn2c(nc3ccccc32)C[Se]1 (stereo unspecified)
GI50 [9]: 2.61 µM (inactive)
GI50 [2]: 4.47 µM (inactive)
GI50 [3]: 3.63 µM (inactive)
GI50 [4]: 1.99 µM (inactive)
GI50 [5]: 12.9 µM (inactive)
GI50 [6]: 2.12 µM (inactive)
GI50 [7]: 2.14 µM (inactive)
GI50 [8]: 3.2 µM (inactive)

Cc1ccccc1-n1c(C)nc2c1C(=O)c1ccccc1C2=O
GI50 [2]: 58.2 µM (inactive)
GI50 [4]: 22.8 µM (inactive)
GI50 [6]: 31.1 µM (inactive)

COc1cccc2c1C(=O)c1c(O)c3c(c(O)c1C2=O)C[C@@](O)(C(C)=O)C[C@@H]3OC1CC(O)C(O)C(C)O1 (stereo partly specified)
GI50 [9]: 1.39 µM (inactive)
GI50 [2]: 4.42 µM (inactive)
GI50 [3]: 1.46 µM (inactive)
GI50 [4]: 1.6 µM (inactive)
GI50 [5]: 2.69 µM (inactive)
GI50 [8]: 2.79 µM (inactive)

COc1ccc(OC)c(NC(=O)C(=O)NNC(=O)c2sc(NNC(C)=O)nc2C)c1
GI50 [1]: 25.6 µM (inactive)
GI50 [2]: 27 µM (inactive)
GI50 [4]: 60.1 µM (inactive)
GI50 [5]: 33.4 µM (inactive)
GI50 [8]: 29.4 µM (inactive)

CC#CC1C2CCCC1(CSc1ccccc1)NC(=O)O2 (stereo unspecified)
GI50 [1]: > 100 µM (inactive)
GI50 [9]: > 100 µM (inactive)
GI50 [2]: > 100 µM (inactive)
GI50 [3]: > 100 µM (inactive)
GI50 [4]: > 100 µM (inactive)
GI50 [5]: > 100 µM (inactive)
GI50 [6]: > 100 µM (inactive)
GI50 [7]: > 100 µM (inactive)
GI50 [8]: > 100 µM (inactive)

C=C1C(=O)OC2/C=C(\C)C3OC3/C=C(/C(=O)OC)C(O)C(OC(=O)C3(C)OC3C)C12 (stereo unspecified)
GI50 [2]: 1.79 µM (inactive)
GI50 [3]: 1.03 µM (active)
GI50 [6]: 0.435 µM (active)
GI50 [8]: 1.36 µM (inactive)

O=C(c1ccc(Cl)cc1Cl)N(/N=C/C=C/c1ccccc1)c1nnc(-c2ccccc2)c(-c2ccccc2)n1
GI50 [1]: > 100 µM (inactive)
GI50 [2]: > 100 µM (inactive)
GI50 [3]: > 100 µM (inactive)
GI50 [4]: > 100 µM (inactive)
GI50 [5]: > 100 µM (inactive)
GI50 [6]: > 100 µM (inactive)
GI50 [7]: > 100 µM (inactive)

O=c1c2ccccc2nc(-c2ccccc2)n1NC1OC(CO)C(O)C(O)C1O (stereo unspecified)
GI50 [1]: > 100 µM (inactive)
GI50 [9]: 1.46 µM (inactive)
GI50 [2]: > 100 µM (inactive)
GI50 [3]: > 100 µM (inactive)
GI50 [4]: > 100 µM (inactive)
GI50 [5]: > 100 µM (inactive)
GI50 [6]: > 100 µM (inactive)
GI50 [7]: > 100 µM (inactive)
GI50 [8]: > 100 µM (inactive)

COc1cccc(N2C(=O)[C@H]3CC(C)c4c([nH]c5ccccc45)[C@H]3C2=O)c1 (stereo partly specified)
GI50 [1]: 55.7 µM (inactive)
GI50 [2]: 33.3 µM (inactive)
GI50 [3]: 80.5 µM (inactive)
GI50 [4]: 86.1 µM (inactive)
GI50 [5]: > 100 µM (inactive)
GI50 [8]: 42.8 µM (inactive)

CSc1ccc(/C=C2/C[N+](C)(C)C/C(=C/c3ccc(SC)cc3)C2=O)cc1
GI50 [1]: 15.7 µM (inactive)
GI50 [9]: 31.8 µM (inactive)
GI50 [2]: 62.2 µM (inactive)
GI50 [3]: 7.78 µM (inactive)
GI50 [4]: 6.25 µM (inactive)
GI50 [6]: 6.44 µM (inactive)
GI50 [7]: 35.2 µM (inactive)

c1cc2[se][se]c3c4cccc5[se][se]c(c(c1)c23)c54
GI50 [1]: > 100 µM (inactive)
GI50 [9]: 0.331 µM (active)
GI50 [2]: > 100 µM (inactive)
GI50 [3]: > 100 µM (inactive)
GI50 [4]: > 100 µM (inactive)
GI50 [5]: > 100 µM (inactive)
GI50 [6]: > 100 µM (inactive)
GI50 [8]: > 100 µM (inactive)

O=C(O)c1cc(=O)c2cc(C(=O)c3cccs3)c(Cl)c(Cl)c2o1
GI50 [2]: > 100 µM (inactive)
GI50 [3]: > 100 µM (inactive)
GI50 [5]: > 100 µM (inactive)
GI50 [8]: > 100 µM (inactive)

COc1ccc(COCC(Cn2ccnc2)OCc2ccc(C(=O)O)cc2)cc1 (stereo unspecified)
GI50 [1]: > 100 µM (inactive)
GI50 [2]: > 100 µM (inactive)
GI50 [3]: > 100 µM (inactive)
GI50 [4]: > 100 µM (inactive)
GI50 [5]: > 100 µM (inactive)
GI50 [6]: > 100 µM (inactive)
GI50 [7]: > 100 µM (inactive)
GI50 [8]: > 100 µM (inactive)

Cc1cc(O)c2c(c1)C[C@@H](O)C1=C2C(=O)c2c(O)ccc(OC3CC(O)C(OC4CC(OC5CCC(OC6CC(O)C(OC7CC(OC8CCC(O)C(C)O8)C(O)C(C)O7)C(C)O6)C(C)O5)C(O)C(C)O4)C(C)O3)c2C1=O (stereo partly specified)
GI50 [1]: 0.0247 µM (active)
GI50 [9]: 0.0403 µM (active)
GI50 [2]: 0.0245 µM (active)
GI50 [3]: 0.0173 µM (active)
GI50 [4]: 0.00411 µM (active)
GI50 [5]: 0.0461 µM (active)
GI50 [6]: 0.0144 µM (active)
GI50 [8]: 0.0155 µM (active)
